“Also recorded” adds a separate entry of the source.
Columns and labels:
[1] = Motor cortex TMS plasticity: stimulus response curve slope after single and repeated spaced iTBS, randomized double-blind placebo-controlled crossover study; assay type: in vivo, human; settings: healthy participants (n=20), +30 and +60 minutes, vs placebo condition
Procedure: Methods: A randomized double-blind placebo-controlled crossover study in healthy participants (n=20) was conducted (NCT05081986). Participants completed the study in two experimental sessions separated. In these experiments, the motor cortex was stimulated twice using TMS intermittent theta burst stimulation (iTBS) with a one-hour interval between interventions. In random order, this was done with placebo or D-cycloserine (100 mg) as adjuvant, and then the converse at least one week later. The participants' surface anatomical markers were registered to a template magnetic resonance brain image using Neuronavigation software (ANT Neuro, Germany) to permit neuronavigation and reliable targeting throughout the experiment. Transcranial magnetic stimulation involved a MagPro X100 system with Cool-B70 figure-eight coil (MagVenture, Denmark). The iTBS protocol consisted of 20 trains of bursts of 3-pulses at 50 Hz, repeated at 5 Hz with an 8 second inter-train interval at 80% RMT. Motor evoked potentials (MEPs) from the first-dorsal interosseous muscle were sampled to describe stimulus response curves using CED Signal (Cambridge, England) before and after iTBS. […] EMG data were analyzed offline using MATLAB via custom written scripts as previously described^123. […]

[2] = Wisconsin Card Sorting Task in the OCD randomized double-blind trial; assay type: in vivo, human; settings: iTBS+DCS (100 mg), baseline vs after 4 weeks of treatment, compared with iTBS+Placebo and Sham-iTBS
Procedure: The efficacy of 100 mg DCS as an adjunctive strategy to iTBS to reduce OCD-related cognitive impairment and/or improve cognition in OCD was tested in a randomized double-blind 4-week study described in the Example above. Participants completed the Wisconsin Card Sorting Task at baseline and after 4 weeks of treatment. The preplanned focus was on the percent perseverative errors as an index of executive function, cognitive flexibility and cognitive control.

SMILES: N[C@@H]1CON=C1O [DCS, D-cycloserine]
- change in stimulus response curve (SRC) slope after first (single) iTBS ([1]; DCS 100 mg as adjuvant to iTBS of motor cortex): stable after a single iTBS; also recorded: the initial SRC shift at +30 minutes remains stable at +60 minutes
- change in stimulus response curve (SRC) slope after second (repeated spaced) iTBS ([1]; DCS 100 mg, second iTBS 60 minutes after the first): compound with spaced repeated iTBS; also recorded: a further shift in SRC slope in the DCS condition at +30 minutes that was sustained at +60 minutes
- percentage of perseverative errors (Wisconsin Card Sorting Task) [2]: significant reductions in the percentage of perseverative errors; also recorded: decrease in the percent perseverative errors

From patent US20240415816A1, “ADJUNCTIVE D-CYCLOSERINE AUGMENTATION OF TRANSCRANIAL MAGNETIC STIMULATION (TMS) THERAPY FOR OBSESSIVE COMPULSIVE DISORDER” (MCGRX CORP., priority 2021, published 2024)
